Test systems include SR; RPMI-8226; CCRF-CEM; LXFL 529; U-251; UACC-257; SF-539; COLO 205; M14; DU-145; PC-3; SN12C; HCT-116; RXF 393; HOP-92; NCI-H522; TK-10; OVCAR-5; SK-MEL-28; BT-549.
What all share (test): growth of human tumour cells (NCI), 48 h

Each structure is given as a SMILES string.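 Cells were grown in 96-well plates and exposed to each compound for 48 hours at five concentrations; endpoints were interpolated linearly between bracketing concentrations, or set to the highest concentration if not reached. Here, GI50 denotes the concentration required for 50% inhibition of growth.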 The source made the active and inactive calls. Rule as the data show it: active = GI50 up to about 1.1 µM and inactive = higher. Bounds are passed on as bounds.

As to `COc1ccc(OC)c2c1C(=O)C(Cl)=C(Cl)C2=O`, the GI50 in the test with SR was 1.16 µM (inactive); with RPMI-8226 it was 3.02 µM (inactive); with CCRF-CEM it was 14.6 µM (inactive); in the test with LXFL 529, 1.95 µM (inactive); with U-251 it was 18 µM (inactive); with UACC-257 it was 2.19 µM (inactive). Moreover, the GI50 is 4.72 µM (inactive) with SF-539; 1.56 µM (inactive) in the test with COLO 205; 2.47 µM (inactive) with M14; 19.6 µM (inactive) in the test with DU-145; 14.5 µM (inactive) in the test on PC-3; 10.7 µM (inactive) with SN12C. The GI50 was 1.72 µM (inactive) in the test on HCT-116; 1.85 µM (inactive) with RXF 393; 2.51 µM (inactive) with HOP-92; 2.04 µM (inactive) in the test on NCI-H522; 3.09 µM (inactive) with TK-10; 15.7 µM (inactive) in the test on OVCAR-5. In addition, in the test on SK-MEL-28, the GI50 is 3.79 µM (inactive).

For `CC(C)Cc1ccc(C(C)CC2=CCC(CN(C)C)C2=O)cc1` (stereo not given), the GI50 in the test with SR is 1.86 µM (inactive); in the test with RPMI-8226 it was 0.333 µM (active); in the test with CCRF-CEM it was 2.4 µM (inactive); in the test with LXFL 529 it was 1.73 µM (inactive); with U-251 it was 6.34 µM (inactive); in the test on UACC-257 it was 13.5 µM (inactive). In addition, the GI50 is 16.3 µM (inactive) with SF-539; 2.69 µM (inactive) in the test with COLO 205; 4.7 µM (inactive) with M14; 16.6 µM (inactive) in the test on DU-145; 14.9 µM (inactive) in the test with PC-3; 9.1 µM (inactive) in the test with SN12C. For the same molecule, the GI50 in the test with HCT-116 is 4.17 µM (inactive); in the test on RXF 393, 5.78 µM (inactive); in the test on HOP-92 it was 2.95 µM (inactive); with NCI-H522, 4.06 µM (inactive); in the test on BT-549, 19.5 µM (inactive); in the test on OVCAR-5, 16.1 µM (inactive). Also, the GI50 in the test with SK-MEL-28 was 9.31 µM (inactive).

In the case of `O=C(CCN1CCCCC1)N1CCc2c([nH]c3ccccc23)C1c1cccnc1` (stereo not given), the GI50 was 41.5 µM (inactive) in the test with SR; 39.7 µM (inactive) in the test with RPMI-8226; 57.4 µM (inactive) in the test on CCRF-CEM; 20.9 µM (inactive) with LXFL 529; 80 µM (inactive) in the test with U-251; 17.5 µM (inactive) in the test with UACC-257. Further, the GI50 with SF-539 was 61.4 µM (inactive); in the test on COLO 205, 21.7 µM (inactive); in the test with M14, 22.9 µM (inactive); in the test on DU-145, > 100 µM (inactive); in the test with PC-3 it was 57 µM (inactive); in the test with SN12C, > 81.5 µM (inactive). In addition, the GI50 is 61.8 µM (inactive) with HCT-116; 28.7 µM (inactive) in the test on RXF 393; 29.7 µM (inactive) in the test with HOP-92; 35.3 µM (inactive) in the test with NCI-H522; > 61.8 µM (inactive) in the test on BT-549; 68.9 µM (inactive) in the test with TK-10. In addition, the GI50 in the test on OVCAR-5 is > 73.3 µM (inactive); with SK-MEL-28, 19.5 µM (inactive).

As to `COC(=O)[C@H](C)[C@H]1CC[C@@](C)([C@H]2CC3C(C)(C)[C@H]4CCC(C)=C[C@H]4C[C@@]3(C)O2)OO1` (stereo not given in full), the GI50 in the test with SR is 9.12 µM (inactive); with RPMI-8226, 2.92 µM (inactive); in the test on CCRF-CEM it was 4.2 µM (inactive); in the test on LXFL 529, 2.03 µM (inactive); with U-251 it was 13 µM (inactive); in the test with UACC-257, 12.1 µM (inactive). The GI50 was 15 µM (inactive) in the test on SF-539; 9.66 µM (inactive) with COLO 205; 12.6 µM (inactive) with M14; 11.1 µM (inactive) with SN12C; 10.5 µM (inactive) with HCT-116; > 10 µM (inactive) in the test on RXF 393. The GI50 is 2.86 µM (inactive) in the test on HOP-92; 1.66 µM (inactive) in the test with NCI-H522; 15.3 µM (inactive) in the test with TK-10; 13.4 µM (inactive) in the test on OVCAR-5; 14.6 µM (inactive) with SK-MEL-28.

`NS(=O)(=O)c1ccc(NC(=O)Cc2nc3ccccc3s2)cc1`: the GI50 with SR is 20.1 µM (inactive); with RPMI-8226 it was 21.3 µM (inactive); with CCRF-CEM, 13.4 µM (inactive); with LXFL 529, 16.8 µM (inactive); with U-251, 15.2 µM (inactive); in the test with UACC-257, 15.8 µM (inactive). The GI50 was 18.3 µM (inactive) with SF-539; 19.5 µM (inactive) in the test with COLO 205; 15.7 µM (inactive) with M14; 17.2 µM (inactive) in the test on SN12C; 16.6 µM (inactive) with HCT-116; 18.6 µM (inactive) in the test on RXF 393. In addition, the GI50 was 16.2 µM (inactive) with HOP-92; 18.1 µM (inactive) with NCI-H522; 24.1 µM (inactive) in the test with TK-10; 20.7 µM (inactive) with OVCAR-5; 17.7 µM (inactive) in the test with SK-MEL-28.

In the case of `COCc1cc2c(s1)C(=O)C1=C(C2=O)C2(C=C(Br)C(=O)C(Br)=C2)CCN1`, the GI50 with SR was 1.49 µM (inactive); in the test with RPMI-8226 it was 3.25 µM (inactive); in the test with CCRF-CEM, 3.01 µM (inactive); with LXFL 529, 2.72 µM (inactive); with U-251, 11.4 µM (inactive); in the test with UACC-257 it was 1.55 µM (inactive). Also, the GI50 in the test with SF-539 was 4.65 µM (inactive); in the test on COLO 205, 3.02 µM (inactive); in the test on M14 it was 1.68 µM (inactive); in the test with DU-145 it was 16 µM (inactive); in the test on PC-3, 3.15 µM (inactive); in the test on SN12C it was 8.15 µM (inactive). Further, the GI50 was 1.41 µM (inactive) in the test on HCT-116; 2.4 µM (inactive) in the test with RXF 393; 4.94 µM (inactive) with HOP-92; 2.39 µM (inactive) in the test on NCI-H522; 18.2 µM (inactive) with TK-10; 15.5 µM (inactive) in the test on OVCAR-5. In the test on SK-MEL-28, the GI50 was 7.67 µM (inactive).

For `C/C(=N\NC(=S)NNC(=S)N(C)c1ccccc1)c1ccccn1`, the GI50 in the test on RPMI-8226 was 0.912 µM (active); in the test with CCRF-CEM, 0.399 µM (active); in the test on LXFL 529, 0.815 µM (active); with U-251, 1.11 µM (active); in the test on UACC-257 it was 1.31 µM (inactive); in the test on SF-539, 2.07 µM (inactive). Further, the GI50 in the test with COLO 205 was 0.673 µM (active); in the test on M14, 0.454 µM (active); in the test with DU-145 it was 1.02 µM (active); in the test on SN12C, 1.6 µM (inactive); with HCT-116, 0.673 µM (active); in the test with RXF 393, 4.19 µM (inactive). For the same molecule, the GI50 was 2.52 µM (inactive) in the test on HOP-92; 3.14 µM (inactive) in the test with BT-549; 2.86 µM (inactive) in the test with TK-10; 24 µM (inactive) in the test with OVCAR-5; 4.25 µM (inactive) in the test on SK-MEL-28.

As to `CCN(CC)CCNc1ccc2ncn3c4ccc(O)cc4c(=O)c1c23`, the GI50 with SR was < 0.01 µM (active); with RPMI-8226, 0.267 µM (active); in the test with CCRF-CEM, 0.0719 µM (active); in the test on LXFL 529, 1.26 µM (inactive); in the test on U-251, 0.193 µM (active); in the test on UACC-257, 6.62 µM (inactive). Further, the GI50 was 0.458 µM (active) with SF-539; 0.769 µM (active) in the test with COLO 205; 1.28 µM (inactive) in the test with M14; 0.315 µM (active) in the test with DU-145; 1.49 µM (inactive) in the test on PC-3; 0.22 µM (active) in the test with SN12C. In addition, the GI50 was 0.212 µM (active) with HCT-116; 0.178 µM (active) in the test with RXF 393; 0.434 µM (active) with HOP-92; 0.458 µM (active) with NCI-H522; 12 µM (inactive) with BT-549; 3.2 µM (inactive) in the test on TK-10. Also, the GI50 is 2.37 µM (inactive) in the test with OVCAR-5 and 7.76 µM (inactive) in the test with SK-MEL-28.

Turning to `CCN(CC)[C@@H]1c2cc3c(cc2C(c2cc(OC)c(O)c(OC)c2)C2C(=O)CO[C@@H]21)OCO3` (stereo not given in full), the GI50 with SR, with RPMI-8226, in the test with CCRF-CEM, with LXFL 529, in the test on U-251 and with UACC-257 was > 100 µM (inactive) in each case. Moreover, the GI50 is > 100 µM (inactive) with SF-539; > 100 µM (inactive) with COLO 205; > 100 µM (inactive) with M14; > 100 µM (inactive) in the test on SN12C; > 100 µM (inactive) in the test on HCT-116; 65.5 µM (inactive) in the test on RXF 393. Further, the GI50 in the test with HOP-92, with NCI-H522, in the test with TK-10, in the test with OVCAR-5 and with SK-MEL-28 was > 100 µM (inactive) each time.

The values above are taken from ChEMBL document CHEMBL1201862, “PubChem BioAssay data set” (2004).
